Experiments:
[1] = tested on: vector transformed yeast cells; test: Yeast reporter assay, vector transformed (no receptor) control yeast; assay type: cell-based
Text: (§1) The yeast cell-based reporter assays have previously been described in the literature (e.g. see Miret J. J., et. al. (2002) J. Biol. Chem. 277:6881–6887; Campbell R. M., et. al. (1999) Bioorg Med. Chem. Lett. 9:2413–2418; King K., et. al. (1990) Science. 250:121–123); WO 99/14344; WO 00/12704; and U.S. Pat. No. 6,100,042). Briefly, yeast cells have been engineered such that the endogenous yeast G-alpha (GPA1) has been deleted and replaced with G-protein chimeras constructed using multiple techniques. Additionally the endogenous yeast alpha-cell GPCR, Ste3 has been deleted to allow for a […] expression of a mammalian GPCR of choice. In the yeast, elements of the pheromone signaling transduction pathway, which are conserved in eukaryotic cells (for example, the mitogen-activated protein kinase pathway), drive the expression of Fus1. By placing β-galactosidase (LacZ) under the control of the Fus1 promoter (Fus1p), a system has been developed whereby receptor activation leads to an enzymatic read-out. Different yeast strains (e.g. FIG. 10) denote the presence of different G-alpha chimeras (see “yeast reporter assays” in Results section below for definitions).
(§2) Yeast cells are transformed by an adaptation of the Lithium acetate method described by Agatep et.al. (Agatep, R., et. al. (1998) Transformation of Saccharomyces cerevisiae by the lithium acetate/single-stranded carrier DNA/polyethylene glycol (LiAc/ss-DNA/PEG) protocol. Technical Tips Online, Trends Journals, Elsevier). Briefly, yeast cells are grown overnight on yeast tryptone plates (YT). Carrier single-stranded DNA (10 μg), 2 μg of each of two Fus1p-LacZ reporter plasmids (one with URA selection marker and one with TRP), 2 μg of OSGPR116 in yeast expression vector (2μ origin of replication) and a lithium acetate/polyethylene glycol/TE buffer is pipetted into an Epindorf tube. The yeast expression plasmid containing the receptor/no receptor control has a LEU marker. Yeast cells are inoculated into this mixture and the reaction proceeds at 30° C. for 60 minutes. The yeast cells are then heat-shocked at 42° C. for 15 minutes. The cells are then washed and spread on selection plates. The selection plates are synthetic defined yeast media minus LEU, URA and TRP (SD-LUT). After incubating at 30° C. for 2–3 days, colonies that grow on the selection plates are then tested in the LacZ assay.
(§3) In order to perform fluorometric enzyme assays for β-galactosidase, yeast cells were grown overnight in liquid SD-LUT media to an unsaturated concentration (i.e. the cells are still dividing and have not yet reached stationary phase). They are diluted in fresh media to an optimal assay concentration and 90 μL of yeast cells were added to 96-well black polystyrene plates (Costar). Compounds, dissolved in ethanol and diluted in a 1% BSA solution to 10× concentration, were added to the plates and the yeast are placed at 30° C. for 4h. After 4h, the substrate for the β-galactosidase is added to each well. The substrate may yield a fluorescent or calorimetric read-out upon the activity of the β-galactosidase. In these experiments, Fluorescein di (β-D-galactopyranoside) was used (FDG), a substrate for the enzyme that releases fluorescein, allowing a fluorometric read-out. 20 μL of 500 uM FDG was used. After incubation of the cells with the substrate for 30–60 mins, 20 μL of 1M sodium carbonate is added to terminate the reaction and enhance the fluorescent signal. The plates were then read in a fluorometer at 485/535 nm. As an alternate read-out system, the yeast are also engineered with a Fus1p-HIS gene which means that activation of the receptor can also be measured through the growth of the yeast in a […] deficient media.

Wistar rats = test: In vivo acute feeding experiment in fasted rats; design: species or system rat; settings: overnight fasted Wistar rats, 1 and 2h post-treatment, FIG. 13
Experimental: For the acute feeding experiment, the experimental conditions used as closely as possible replicated those of de Fonseca, F. R. et.al. (2001) Nature, 414:209–212. […] Oleoylethanolamide (3 and 10 mg/kg i.p.) or vehicle was administered 15 minutes prior to the availability of food. Oleoylethanolamide was dissolved in dimethylsulfoxide (DMSO) and administered in a 70% DMSO in sterile water solution. Following presentation of food, food intake (grams) was measured at 1, 2, 3 and 4h intervals and the results compared to a normal feeding and vehicle treated control group.

OSGPR116 [2] = target: T1, OSGPR116 (Homo sapiens, UniProt Q8TDV5); test: Adenylate cyclase (alpha-screen cAMP) assay in ASPC-1 cells endogenously expressing OSGPR116; assay type: cell-based; settings: FIG. 11
T1 sequence (Q8TDV5 1-335): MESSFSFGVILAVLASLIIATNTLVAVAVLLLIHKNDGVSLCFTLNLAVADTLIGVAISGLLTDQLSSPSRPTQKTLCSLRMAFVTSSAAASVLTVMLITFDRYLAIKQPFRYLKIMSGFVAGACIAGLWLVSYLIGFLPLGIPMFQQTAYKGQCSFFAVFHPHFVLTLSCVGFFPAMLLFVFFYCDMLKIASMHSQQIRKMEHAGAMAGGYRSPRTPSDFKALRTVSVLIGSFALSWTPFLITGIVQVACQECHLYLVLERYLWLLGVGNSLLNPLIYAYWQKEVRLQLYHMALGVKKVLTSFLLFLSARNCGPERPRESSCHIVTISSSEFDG
Experimental: The adenylate cyclase assay was performed with an alpha-screen cAMP assay kit […]. The manufacturers protocol was followed. Briefly, ASPC-1 cells, known to endogenously express moderate levels of OSGPR116 were […] from the culture flask using a lysis buffer (0.1% BSA in PBS containing 20 μM rolipram and 0.54% TWEEN20), washed with PBS and diluted in assay buffer (0.1% BSA in PBS containing 20 μM rolipram) to a concentration of 600,000 cells/mL. White polystyrene 96-well plates were used for the assay. […] The plate was incubated at room temperature 30 min. For the standard cAMP curve used to quantify the data, 5 μl water+5 μl 4×cAMP in assay buffer+5 μl acceptor beads+5 μl cells were added to the plate. To terminate the assay, 10 ul of the donor beads solution was added (30 nM biotin-cAMP/60 μg streptavidin-donor beads in 1 mL lysis buffer). The plates were incubated overnight, protected from light. A Fusion-αHT counter was used to read the plates according to the kit's instructions.

OSGPR116 [3] = target: T1, OSGPR116; test: Yeast cell-based Fus1p-LacZ reporter assay, human OSGPR116; design: expressed in transfected cells; host or cells: engineered yeast (GPA1 and Ste3 deleted, G-alpha chimera, Fus1p-LacZ reporters); settings: for rank of efficacy and potency among compounds tested: yeast-based reporter assay
Text: as §1, §2, §3

OSGPR116 [4] = target: T1, OSGPR116; test: Yeast reporter assay in strains with different G-alpha chimeras; assay type: cell-based; design: expressed in transfected cells; host or cells: yeast strains 13397, 13393, 15070, 18043, 20202, 10151 with different G-alpha chimeras; settings: G-alpha-q (13397), G-alpha-i (13393, 15070, 18043), G-alpha-s (20202, 10151) strains; FIG. 10
Text: The yeast cell-based reporter assays have previously been described in the literature (e.g. see Miret J. J., et. al. (2002) J. Biol. Chem. 277:6881–6887; Campbell R. M., et. al. (1999) Bioorg Med. Chem. Lett. 9:2413–2418; King K., et. al. (1990) Science. 250:121–123); WO 99/14344; WO 00/12704; and U.S. Pat. No. 6,100,042). Briefly, yeast cells have been engineered such that the endogenous yeast G-alpha (GPA1) has been deleted and replaced with G-protein chimeras constructed using multiple techniques. Additionally the endogenous yeast alpha-cell GPCR, Ste3 has been deleted to allow for a […] expression of a mammalian GPCR of choice. […] By placing β-galactosidase (LacZ) under the control of the Fus1 promoter (Fus1p), a system has been developed whereby receptor activation leads to an enzymatic read-out. […]
In order to perform fluorometric enzyme assays for β-galactosidase, yeast cells were grown overnight in liquid SD-LUT media to an unsaturated concentration (i.e. the cells are still dividing and have not yet reached stationary phase). […] The substrate may yield a fluorescent or calorimetric read-out upon the activity of the β-galactosidase. In these experiments, Fluorescein di (β-D-galactopyranoside) was used (FDG), a substrate for the enzyme that releases fluorescein, allowing a fluorometric read-out. […] The plates were then read in a fluorometer at 485/535 nm. […]

[5] = target: T2, mouse homolog of OSGPR116 (Mus musculus, UniProt Q7TQP3); test: Yeast cell-based Fus1p-LacZ reporter assay, mouse OSGPR116; settings: mouse isoform, FIG. 9b; Galpha-q5 yeast, 4h incubation
T2 construct: expressed in transfected cells; host or cells: engineered yeast (GPA1 and Ste3 deleted, G-alpha chimera, Fus1p-LacZ reporters)
T2 sequence (Q7TQP3 1-335): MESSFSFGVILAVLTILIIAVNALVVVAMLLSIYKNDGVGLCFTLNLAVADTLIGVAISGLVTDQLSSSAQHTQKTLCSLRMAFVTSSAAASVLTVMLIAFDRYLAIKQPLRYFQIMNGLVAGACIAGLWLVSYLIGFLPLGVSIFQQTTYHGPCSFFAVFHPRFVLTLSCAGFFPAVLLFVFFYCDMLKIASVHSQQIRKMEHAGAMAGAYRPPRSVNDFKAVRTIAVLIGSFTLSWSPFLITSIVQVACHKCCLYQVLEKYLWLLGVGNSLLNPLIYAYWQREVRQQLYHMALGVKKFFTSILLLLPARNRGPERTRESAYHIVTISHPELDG
Text: as §1, §2, §3

## CCCCCCCC/C=C\CCCCCCCC(=O)NCCO [oleoyl ethanolamide]
[1]; G-alpha chimera strains, FIG. 10
  response of vector controls in the same yeast strains: did not respond
[1]; yeast without OSGPR116 expression, FIGS. 9a, 9b
  increase in fluorescence in vector transformed cells: not
Wistar rats; 3 mg/kg i.p.
  feeding (food intake): inhibition of feeding
Wistar rats; 10 mg/kg i.p.
  feeding (food intake): inhibition of feeding
OSGPR116 [2]; 10 μM compound with forskolin (10 μM)
  forskolin-stimulated cAMP accumulation: inhibition
OSGPR116 [2]; 10 μM, without forskolin
  cAMP production: did not cause an increase
OSGPR116 [3]; human isoform, FIG. 9a, Galpha-q5 yeast, 4h incubation
  effect on fluorescence (β-galactosidase activity) in yeast transformed with OSGPR116 receptor: increase in fluorescence
OSGPR116 [3]; listed as Oleoyl ethanolamide
  rank of efficacy and potency among compounds tested: most efficacious and potent
OSGPR116 [3]; listed as oleoylethanolamide
  rank of efficacy and potency among compounds tested: optimal endogenously produced agonist
OSGPR116 [4]
  response in OSGPR116-transformed yeast with G-alpha chimeras: produce a response
[5]
  effect on fluorescence (β-galactosidase activity) in yeast transformed with OSGPR116 receptor: increase in fluorescence

Source: patent publication US7083933B1, “Methods for identification of modulators of OSGPR116 activity” (Prosidion Limited, priority 2003, dated 2006)
